Source: article PMC3527569, “Anti-Inflammatory and Vasoprotective Activity of a Retroviral-Derived Peptide, Homologous to Human Endogenous Retroviruses: Endothelial Cell Effects” (PLoS ONE, 2012)
Entries after “also recorded” stand apart in the source; their conditions may differ. Where no end group is shown, it is not given here.

Experiments:
[1] = system: inflammatory accumulation of monocytes/macrophages; assay: Mouse NaIO4-induced inflammatory peritonitis model; type: in vivo, mouse (CD-1); conditions: monocyte/macrophage accumulation at 48 h; for Dose Achieving Maximum Inhibition (nmoles) / Dose Achieving Maximum Inhibition (µg): CD-1 mice, agent s.c. 24 h before i.p. NaIO4; for Maximum Inhibition (%): groups of five CD-1 mice, agent s.c. 24 h before i.p. NaIO4 (5 mM, 1.0 ml), one experiment; for IC50 (nmoles) / IC50 (µg): in vivo dose per mouse, s.c. 24 h before i.p. NaIO4
Description: Effects of test compounds on the inflammatory accumulation of monocytes/macrophages or neutrophils in vivo were determined using a mouse peritonitis model. Briefly, groups of five 6–8 week old CD-1 outbred mice (Charles River; Raleigh, NC) were injected intraperitoneally (i.p.) with 1.0 ml of a sterile inflammatory stimulus (NaIO4; 5 mM in sterile isotonic saline; Sigma; St. Louis, MO). This procedure results in a dramatic accumulation of neutrophils in the peritoneal cavity which peaks at 6–8 h post injection, followed by an accumulation of monocytes/macrophages which peaks at 48–72 h post injection. Mice were euthanized by CO2 asphyxiation at either 6 h (for neutrophils) or 48 h (for monocyte/macrophages), the peritoneal cavities lavaged with two 10-ml washes of heparinized (10 u/ml; Sigma; St. Louis, MO) HBSS containing 0.1% (w/v) BSA, the washes pooled, and total and differential cells counts determined for each pooled cell suspension. Each test material was evaluated in a group of five mice, each of which was injected subcutaneously in the thigh with 0.2 ml of test material in HBSS 24 h prior to the i.p. injection of the inflammatory stimulus.

carrageenan-induced DIC = assay: Mouse carrageenan-induced DIC model, lethality; type: in vivo, mouse (CD-1); conditions: data not shown
Description: Groups of 10 male CD-1 mice were injected i.p. with 0.25 ml of either vehicle (PBS) or peptide in vehicle at varying times prior to the i.p. injection of 1.0 ml of carrageenan (0.45% [w/v] in PBS; Sigma). In experiments where serum cytokine levels were determined, groups of 5 mice were euthanized at 1-, 2-, 4-, 8-, and 24-h post injection of carrageenan, blood collected by cardiac puncture into heparinized syringes, and the resultant plasma stored at −80°C until assayed by ELISA. […] At 1-, 2-, 4-, and 24-h post injection of carrageenan, five mice from each group were euthanized and heparinized blood samples collected from the heart using heparinized syringes for subsequent determinations of WBC (white blood cell) counts, RBC (red blood cell) counts, or PLT (platelet) counts.

systolic blood pressure = assay: SHR rat hypertension model (tail cuff); type: in vivo; conditions: 100 mg/kg orally (gavage), groups of 3 SHR rats, tail cuff, vs 0 h value
Description: As part of a general pharmacological screen, MN10021 was evaluated in a rat model of hypertension by MDS-PanLabs (Bothell, WA). […] Blood pressure measurements were made by tail cuff at 1, 2, and 4 h post administration of test compounds. A decrease of ≥10% of the baseline systolic blood pressure is considered significant in this assay.

[2] = system: iNOS (inducible nitric oxide synthase) mRNA; assay: RT-PCR of iNOS mRNA in HUVEC; type: cell-based, human; conditions: for induction of mRNA for iNOS in HUVEC: 50 µM peptide, 3 h, 37°C, quiescent HUVEC, RT-PCR
Description: (§1) Cells were cultured with various concentrations of test materials, either with or without stimulus, for varying times. The cells were collected, washed and total RNA isolated using the RNeasy Mini Kit (Qiagen; Valencia, CA). Following isolation the RNA was treated with 7 units of DNase I according to the RNase-Free DNase Set (Qiagen; Valencia, CA) protocol. Using these procedures we usually obtained ∼50 µg of total RNA/10^7 cells. cDNA was prepared from the isolated mRNAs and RT-PCR performed on the target cytokines/chemokines/growth factors using appropriate primer pairs and a control primer pair for β-actin (all from R & D Systems; Minneapolis, MN). RT-PCR was generally performed for 30 cycles for β-actin and 35–45 cycles for iNOS and VEGF.

[3] = system: endothelial nitric oxide synthase (eNOS) mRNA; assay: RT-PCR of eNOS mRNA in HUVEC; type: cell-based, human; conditions: data not shown
Description: as §1

HUVEC = assay: Staurosporine-induced apoptosis in HUVEC (Cell Death Detection ELISA); type: cell-based, human; conditions: for protection against staurosporine-induced apoptosis: 50 µM peptide 3 h before staurosporine (500 nM), measured 18 h after staurosporine (Figure 11B)
Description: Apoptosis was measured in HUVEC using the Cell Death Detection ELISA^PLUS kit (Roche Diagnostics; Indianapolis, IN) according to the manufacturer's instructions. This assay is based on a quantitative sandwich-enzyme-immunoassay using mouse monoclonal antibodies directed against both DNA and histones, respectively. It allows the specific determination of mono- and oligonucleosomes in the cytoplasmic fraction of cell lysates (apoptosis) and in the supernatant of dying cells (necrosis). The apoptotic index (AI) was calculated as
where treatment refers to use of a known apoptosis- or necrosis-inducing agent (staurosporine, TNF-α).

[4] = system: nitrate in HUVEC supernatants; assay: NO release (nitrate as nitrite) from HUVEC; type: cell-based, human; conditions: 50 µM peptide
Description: HUVEC were grown to 80–90% confluence in 12-well tissue culture plates using defined media provided by Cambrex and supplemented with 10% FBS. Triplicate wells were incubated with either media alone or media containing 50 µM of the indicated peptide. Supernatant samples were removed from each well at 6 h and 24 h post peptide addition and assayed for NO release as measured by the presence of nitrate (converted to nitrite) using a kit supplied by Oxford Biomedical Research (Rochester Hill, MI) according to the manufacturer's instructions.

dengue virus = assay: Vascular leak in liver of mice injected with dengue virus; design: species or system mouse; conditions: 1 µg intraperitoneal; dengue virus i.v.; preliminary in vivo studies
iNOS mRNA = iNOS mRNA induction in HUASMC; type: cell-based, human; conditions: compared with MN10021
Description: as §1

[5] = qualitative ranking of the three peptides
[6] = system: human monocyte chemotactic responses; design: method as in PMID 1634759, PMID 1534759; conditions: cited from earlier work
lymphocyte proliferation = system: lymphocyte proliferation; design: method as in PMID 1634759, PMID 1534759; conditions: cited from earlier work
inflammation [7] = system: inflammation; design: method as in earlier work; conditions: cited from earlier work
inflammation [8] = system: inflammation; design: method as in earlier work; conditions: cited from earlier work; remark: listed apart in the source

CC(=O)Nc1ccc(O)cc1 [Acetaminophen, acetaminophen]
Dose Achieving Maximum Inhibition (nmoles) [1]: 6614 nmol | Dose Achieving Maximum Inhibition (µg) [1]: 1000 µg | Maximum Inhibition (%) [1]: 95% | IC50 (nmoles) [1]: 132 nmol | IC50 (µg) [1]: 20 µg | ability to protect mice in DIC model (carrageenan-induced DIC): no success

C[C@@H]1C[C@H]2[C@@H]3CCC4=CC(=O)C=C[C@]4(C)[C@@]3(F)[C@@H](O)C[C@]2(C)[C@@]1(O)C(=O)CO [Dexamethasone]
Dose Achieving Maximum Inhibition (nmoles) [1]: 204 nmol | Dose Achieving Maximum Inhibition (µg) [1]: 80 µg | Maximum Inhibition (%) [1]: 75% | ability to protect mice in DIC model (carrageenan-induced DIC): no success

O=C(O)Cc1ccccc1Nc1c(Cl)cccc1Cl [Diclofenac, diclofenac]
Dose Achieving Maximum Inhibition (nmoles) [1]: 314 nmol | Dose Achieving Maximum Inhibition (µg) [1]: 100 µg | Maximum Inhibition (%) [1]: 90% | IC50 (nmoles) [1]: 16 nmol | IC50 (µg) [1]: 5 µg | ability to protect mice in DIC model (carrageenan-induced DIC): no success

C[C@](N)(Cc1ccc(O)c(O)c1)C(=O)O [L-methyldopa, reference compound]
decrease in blood pressure at 1 h (systolic blood pressure): 16% | decrease in blood pressure at 2 h (systolic blood pressure): 23% | decrease in blood pressure at 4 h (systolic blood pressure): 28%

N=C(N)NN [aminoguanidine]
ability to protect mice in DIC model (carrageenan-induced DIC): no success

COc1ccc2c(c1)c(CC(=O)O)c(C)n2C(=O)c1ccc(Cl)cc1 [indomethacin]
ability to protect mice in DIC model (carrageenan-induced DIC): no success

COc1ccc2cc([C@H](C)C(=O)O)ccc2c1 [naproxen]
ability to protect mice in DIC model (carrageenan-induced DIC): no success

CCN(CC)CCCC(C)Nc1c2ccc(Cl)cc2nc2ccc(OC)cc12 (stereo not shown) [quinacrine]
ability to protect mice in DIC model (carrageenan-induced DIC): no success

CN[C@@H]1C[C@H]2O[C@@](C)([C@@H]1OC)n1c3ccccc3c3c4c(c5c6ccccc6n2c5c31)C(=O)NC4 [staurosporine]
ability to protect mice in DIC model (carrageenan-induced DIC): no success

Ac-GLDLLFLK-NH2 [DUK0005]
induction of mRNA for iNOS in HUVEC [2]: most effective; also recorded: as effective as MN10021 | effect on expression of mRNA for eNOS [3]: Neither MN10021 nor DUK0005 affected | protection against staurosporine-induced apoptosis (HUVEC): significant protection | effect of L-NAME pretreatment on protective effect against staurosporine-induced apoptosis (HUVEC; 2 mM L-NAME 5 h, then 50 µM peptide 3 h, staurosporine 500 nM ON (Figure 12)): no effect | maximal protection against staurosporine-induced apoptosis (HUVEC; peptide added 3 h before staurosporine, up to 50 µM peptide, quadruplicate wells (Figure 10A, 10C)): ~40% | nitrate release (as measured by nitrite assay) from HUVEC ([4]; 6 h or ON): induced nitrate release | effect on vascular leak in the liver of dengue virus-injected mice (dengue virus): inhibit the vascular leak | induction of iNOS mRNA in HUASMC (iNOS mRNA): as effective as MN10021 | relative solubility among DUK0004, DUK0005, DUK0006 [5]: intermediate

Ac-GLDLLYLK-NH2 [DUK0007]
induction of mRNA for iNOS in HUVEC [2]: does not induce iNOS | effect on induction of iNOS by DUK005 when combined 1:1 ([2]; HUVEC, data not shown): inhibits the induction of iNOS | protection against staurosporine-induced apoptosis (HUVEC): no protective effective | nitrate release, percent of MN10021 ([4]; 6 h and ON incubations): ≤ 25%

GLDLLFLK [DUK0001]
induction of mRNA for iNOS in HUVEC [2]: weak induction

GLDLLFLK-NH2 [DUK0006]
induction of mRNA for iNOS in HUVEC [2]: comparable | relative solubility among DUK0004, DUK0005, DUK0006 [5]: most soluble

LDLLFL [hexapeptide corresponding to the central six amino acids of DUK0005, studied by other investigators]
effect on in vitro human monocyte chemotactic responses [6]: inhibited | effect on ligand (CD3) and interleukin-2 (IL-2)-induced lymphocyte proliferation (lymphocyte proliferation): inhibited | anti-inflammatory activity in mice (inflammation [7]): did not find this hexapeptide to be anti-inflammatory | anti-inflammatory activity in guinea pigs (inflammation [8]): did not find this hexapeptide to be anti-inflammatory

acetyl-GLDLLFLK-acetyl [DUK0004]
induction of mRNA for iNOS in HUVEC [2]: comparable | relative solubility among DUK0004, DUK0005, DUK0006 [5]: least soluble
